Test results from patent publication US20080020387A1, “BIOMARKER-OPTIMIZED ADHD TREATMENT” (priority 2006, published 2008).

How the values were obtained:
[1] = test system: ADHD patients; conditions: cited from earlier work
[2] = test system: children with ADHD; test: Reported side effects after single drug dose and TMS; type: in vivo, human
Experimental: (§1) The study is a randomized, double-blind, crossover design comparing the effects of single doses of atomoxetine (ATX) and methylphenidate (MPH). Sixteen patients (age 8-17 years, mean age=12, ±3; 2 girls) participate. Nine have TS. Medication doses are clinically relevant: approximately 0.5 mg/kg for MPH and 1.0 mg/kg for ATX, administered as follows:
(§2) 1) subjects 20-29 kg→10 mg MPH, 20 mg ATX; 2) subjects 30-49 kg→20 mg MPH, 40 mg ATX; 3) subjects 50 kg and above→30 mg MPH, 60 mg ATX. Subjects and investigators are blind to the order of treatment throughout the study. The one-week interval between study visits is based on published pharmacokinetic data for single doses of ATX.

[3] = test system: children with ADHD; test: Paired and single TMS of motor cortex measuring short interval cortical inhibition (SICI) before and after single drug doses; type: in vivo, human; conditions: for Cortical Inhibition (SICI), post-medication: 90 minutes later
Experimental: Accordingly, sixteen children with ADHD, aged 8-17, are studied. Seven are homozygotes for the 10-repeat allele. Subjects are given single oral doses of 0.5 mg/kg methylphenidate and 1.0 mg/kg atomoxetine at visits separated by one week in a randomized, double-blind crossover design. Paired and single TMS are used to measure SICI before and after drug administration. Medication and genotype effects on SICI are estimated with repeated measures, mixed model regression. […] Some variation in ADHD medication-induced neurophysiological responses is explained by differences in the number of 3′-UTR, 10-repeat VNTR alleles in DAT1.
as §1, §2
Neurophysiological studies are performed as described by Gilbert et al. ((2006) Neuropsychopharmacology 31 :442-449). TMS is performed by an investigator blind to genotype and clinical ratings.
Resting and active motor threshold (RMT and AMT) are measured using the method described in Mills and Nithi ((1997) Muscle and Nerve 20:570-576). SICI and intracortical facilitation (ICF) are measured with the Abductor Pollicis Brevis (APB) at rest, according to established paradigms (Kujirai et al. (1993) J. Physiol. 471:501-519; Ziemann et al. (1997) Electroencelphalogr. Clin. Neurophysiol. 105:430-437). SICI is measured with a conditioning pulse, 1% of stimulator output below AMT (˜70% of RMT), delivered 3 msec before a suprathreshold test pulse. ICF is measured with the conditioning pulse 10 msec before the test pulse. Twenty trials at each interval and 20 unconditioned test pulses are delivered in random order. SICI and ICF are expressed as the ratios of the mean motor evoked potential (MEP) amplitudes evoked by the pulse pairs divided by the mean amplitude of the MEP from the single test pulses.
After baseline TMS testing, subjects are administered study medication, and all measurements are repeated 90 minutes later, consistent with expected peak serum drug levels. Each TMS session takes approximately 30 minutes.
Primary analysis. The primary outcome of interest for this study is ADHD-medication, genotype, and medication*genotype effects on cortical inhibition (SICI). SICI measures are subjected to a mixed model, repeated measures analysis of variance using PROC MIXED. After assuring that baselines are not different and that there are no effects of order, we then model SICI=medication+DAT genotype+medication*genotype, combining baselines. Age and ADHD severity scores are also entered into the models as potential explanatory covariates. ICF is modeled in the same manner to determine if any effects are specific to cortical inhibition.
Secondary analyses. The secondary outcome of interest is to compare ATX and MPH effects on cortical inhibition (SICI). Two repeated measure regressions are performed: 1) the baselines-combined model above, and 2) a day-of-visit, baseline-adjusted model. Genotypes are entered to estimate genotype-specific effects of ATX vs. MPH. The Tic phenotype is entered to estimate TIC*medication and TIC*ATX vs. TIC*MPH effects. In addition, using Spearman, correlations of changes in SICI and ICF are assessed for ATX and MPH, and for SICI and ADHD severity.

[4] = test system: children with ADHD; conditions: single 10 mg dose, Moll et al. (2000); cited from earlier work
[5] = DAT1 10-repeat homozygotes, single oral dose
[6] = DAT 9, 10 genotype, single oral dose, baseline-adjusted estimate
[7] = DAT 10, 10 genotype, single oral dose, baseline-adjusted estimate
[8] = No Tics, single oral dose, baseline-adjusted estimate
[9] = Tics, single oral dose, baseline-adjusted estimate
[10] = all subjects, single oral dose ~1.0 mg/kg ATX or ~0.5 mg/kg MPH, adjusted for day-of-visit pre-treatment SICI, MEP amplitude ratio
[11] = heterozygotes (single 10-repeat DAT1 allele), single oral dose
[12] = individuals with ADHD and no TS, single oral dose
[13] = patients with ADHD and TS, single oral dose

CNCC[C@@H](Oc1ccccc1C)c1ccccc1 [ATX, atomoxetine]
ADHD patients who do not respond to treatment (non-response rate) ([1]; clinical evidence, Michelson et al. (2002)): approximately 40%
Number of subjects reporting side effects ([2]; both, human, in vivo): 4 subjects
Side effect: headache (number of reports) ([2]; both, human, in vivo): 3
Side effect: loss of appetite (number of reports) ([2]; both, human, in vivo): 2
Side effect: nausea (number of reports) ([2]; both, human, in vivo): 2
Side effect: numbness/tingling (number of reports) ([2]; both, human, in vivo): 1
Side effect: scalp pain (number of reports) ([2]; both, human, in vivo): 1
Side effect: stomach pain (number of reports) ([2]; both, human, in vivo): 1
Severity rating of side effects ([2]; in vivo): mild
Effect of medication on SICI [3, 5]: slight decrease in SICI
Cortical Inhibition (SICI), post-medication [3, 6]: 0.51
Cortical Inhibition (SICI), post-medication [3, 7]: 0.66
Cortical Inhibition (SICI), post-medication [3, 8]: 0.62
Cortical Inhibition (SICI), post-medication [3, 9]: 0.56
Cortical Inhibition (SICI), post-medication [3, 10]: 0.59
Effect of medication on SICI [3, 11]: tend to increase (normalize) SICI
Effect of medication on SICI ([3]; heterozygotes (single 10-repeat DAT1 allele), single oral dose, listed as Atomoxetine): increases (improves) SICI
Effect of medication on SICI [3, 12]: decrease SICI
Effect of medication on SICI [3, 13]: increase (normalize) SICI

COC(=O)C(c1ccccc1)C1CCCCN1 (stereo not shown) [MPH, methylphenidate]
Clinical response by DAT1 genotype ([1]; individuals with the DAT1 10/10 genotype, e.g. Cheon et al. (2005)): poorer clinical response
Effect on SICI [4]: significantly increase (normalize) SICI
Severity rating of side effects ([2]; after drug/TMS): mild, except for one child who reports a moderate headache
Side effect: abdominal pain (number of reports) ([2]; after drug/TMS): 1
Side effect: arm/other pain (number of reports) ([2]; after drug/TMS): 2
Side effect: headache (number of reports) ([2]; after drug/TMS): 3
Side effect: hearing change (number of reports) ([2]; after drug/TMS): 1
Side effect: numbness/tingling (number of reports) ([2]; after drug/TMS): 1
Number of subjects reporting side effects ([2]; of 16 subjects, after drug/TMS): 6 subjects
Effect of medication on SICI [3, 5]: slight decrease in SICI
Cortical Inhibition (SICI), post-medication [3, 6]: 0.47
Cortical Inhibition (SICI), post-medication [3, 7]: 0.61
Cortical Inhibition (SICI), post-medication [3, 8]: 0.64
Cortical Inhibition (SICI), post-medication [3, 9]: 0.44
Cortical Inhibition (SICI), post-medication [3, 10]: 0.54
Effect of medication on SICI [3, 11]: tend to increase (normalize) SICI
Effect of medication on SICI [3, 12]: decrease SICI
Effect of medication on SICI [3, 13]: increase (normalize) SICI
